Test system: Schistosoma mansoni 21-day-old schistosomules
Assay: Effect on 21-day-old schistosomules in infected mice
Assay type: in vivo
Conditions: single 200 mg/kg per os, 21-day-old schistosomules; for % reduction of schistosomule growth at day 21 after per os application of 200 mg/kg, FWR (%): female worm reduction rate; for % reduction of schistosomule growth at day 21 after per os application of 200 mg/kg, TWR (%): total worm reduction rate
Method: Mice were infected with 100 Schistosoma mansoni cercariae on day 21 post-treatment. Each group was treated per os with trioxolanes at a single dose of 200 mg/kg. […] All groups were killed 4 weeks after treatment and the liver and intestine were removed and separated. The liver and intestine were compressed and alive male and female worms could be seen and counted. The effect of the compounds was evaluated by mean total and female worm burden.

| Structure (SMILES) | % reduction of schistosomule growth at day 21 after per os application of 200 mg/kg, FWR (%) | % reduction of schistosomule growth at day 21 after per os application of 200 mg/kg, TWR (%) |
| --- | --- | --- |
| ON=C1CCC2(CC1)OOC1(O2)C2CC3CC(C2)CC1C3 (stereo not drawn) [OZ16] | 77 | 78 |
| c1ccc(CON=C2CCC3(CC2)OOC2(O3)C3CC4CC(C3)CC2C4)cc1 (stereo not drawn) [OZ19] | 74 | 77 |
| C1CC2(CCO1)OOC1(O2)C2CC3CC(C2)CC1C3 (stereo not drawn) [OZ22] | 76 | 75 |
| CC1(C)CC(C)(C)CC2(C1)OOC1(O2)C2CC3CC(C2)CC1C3 (stereo not drawn) [OZ26] | 40 | 37 |
| CC(C)(C)ON=C1CCC2(CC1)OOC1(O2)C2CC3CC(C2)CC1C3 (stereo not drawn) [OZ28] | 87 | 81 |
| O=C(NN=C1CCC2(CC1)OOC1(O2)C2CC3CC(C2)CC1C3)Nc1ccccc1 (stereo not drawn) [OZ30] | 12 | 16 |
| CC1(C)CCC2(CC1)OOC1(O2)C2CC3CC(C2)CC1C3 (stereo not drawn) [OZ33] | 14 | 28 |
| CC(C)(C)OC(=O)N1CCC2(CC1)OOC1(O2)C2CC3CC(C2)CC1C3 (stereo not drawn) [OZ35] | 63 | 73 |
| CON=C1CC2CC3(CC2C1)OOC1(O3)C2CC3CC(C2)CC1C3 (stereo not drawn) [OZ37] | 53 | 63 |

From US6825230B2, “Spiro and dispiro 1,2,4-trixolane antimalarials” (Medicines for Malaria Venture MMV, priority 2002, dated 2004)
